Results published in patent US8338616B2, “Thiazoliums and their use for treating protein aging associated diseases” (Beijing Molecule Science And Technology Co., Ltd., priority 2008, dated 2012).
Values joined by “and” are separate entries in the source; they are usually repeats but may differ in a detail not shown here. Equal values may be shown once. Read-outs that look alike come from different tables or passages of the source. Marks after values point to notes of the source that are not given here.

Experiments:
[1] = system: IgG cross-linked on red blood cell surface; conditions: RBC of diabetic rats
Method: In vitro administration: 0.1 mol/L isoosmia PBS (pH7.4) was used as negative control, and it was used as solvent to form drug solutions of the compounds to be tested with different concentrations. Per 900 μl drug solution or solvent control was added with 100 μl RBC, slightly shaken at 37° C. for 16-18 h; centrifuged at 1000 g and 4° C. for 3 min, supernatant was discarded, 0.1 mol/L is PBS (pH7.4) was used to wash plate for 4 times to remove residual compound;
centrifuged at 1000 g and 4° C. for 3 min, a lower layer of RBC was obtained, diluted by 1:100 and used for ELISA assay.
Immunoadsorption assay protocol for IgG content cross-linked on RBC surface: Multiscreen-HA 0.45 μm 96 well microtiter plate (Millipore) was blocked with Superblock (300 μl/well) at 37° C. for 1 h; then dried at a reduced pressure of 5 mmHg, the plate was washed with PBST for 3 time, with 0.1 MPBS (pH7.4) for 3 times, and the plate was shaken for 1 min per time; the RBC to be tested was added (50 μl/well), and PBS background control wells were set (OD0); dried by suction at a reduced pressure; washed with 0.1mol/L PBS (pH7.4) 150 μl for 4 time, the plate was shaken for 1 min per time. After dried by suction at a reduced pressure, 1:500 diluted goat anti-mouse IgG-HRP (50 μl/well) was added, stood at room temperature for 2 h, dried by suction; washed with 0.1 mol/L PBS (pH7.4) 150μl/well for 3 times, the plate was shaken for 1 min per time; dried by suction; o-phenylene diamine (OPD) substrate coloration solution (100 μl/well) was added, stood at room temperature for 30 min under protection from light, the reaction was terminated with 2 mol/L H2SO4 (100 μl/well); the reaction liquid was quickly drawn off (150 μl/well) and transferred to a normal 96 well enzyme labeled plate, and OD values were measured at 490 nm.
Corrected OD=average OD of RBC sample to be tested−average OD of PBS background wells without RBC, the breaking rate of the compounds is expressed as the percentages of OD490 nm decrease: (OD490 nm of PBS wells−OD490 nm of the compound to be tested)/OD490 nm of PBS wells×100%.

[2] = system: left ventricular cardiac muscle collagen of diabetic rats; conditions: printed for the group of A 18 mg/kg (three values), diabetic model 42.8±4.3, sodium
Method: After the end of vascular compliance experiment, the heart of each of rats was taken, trimmed to remove heart auricle and right ventricle and remain only left ventricle, the trimmed tissue block was planced in a mortar, added with a small amount of liquid nitrogen and ground rapidly, added with a small amount of liquid nitrogen again when the tissue became soft and ground continuously to form a fine powder, and stored at −70° C. for standby use. About 100 mg of cardiac muscle was weighed, added with 1 ml 200 μg/ml pepsin (solvent: 0.5 mol/L acetic acid), shaken at 37 ° C. for 2 h and 24 h, respectively, centrifuged at 40000 g for 60 min, the supernatants of pepsin digestion solutions for 2 h and 24 h were separately taken, hydrolyzed and measured to determine hydroxyproline contents (the methods for hydrolysis and measurement are the same as aforementioned). The dissolubility of cardiac muscle collagen is calculated by the following formula: […]

[3] = system: NaCl treated diabetic rats modeled with heart failure; conditions: 10 weeks; for BNP: blood plasma
Method: Second batch: NaCl treated diabetic rats modeled with heart failure for 20 weeks and normal control rats synchronically and conventionally drinking water were divided into 5 groups: normal control rats synchronically and conventionally drinking water group (Normal Control), model control group (Model Control), the compound A group (ig, 9 mg/kg), the compound A group (ig, 36 mg/kg), administered with drug once per day for consecutive 10 weeks. The pharmacodynamic evaluation on left ventricular function was conducted by using a ventricular chatheterization method.
SPSS statistic software was used to analyze and treat data, and all data were expressed in mean±standard deviation (Mean±SD).

[4] = system: tail collagen of diabetic rats; conditions: diabetic model 19.7±7.2
Method: Tail tendon collagen fibrils were taken out under ice-bath, washed with physiological saline, peeled off non-collagen tissues, lyophilized and stored at −70° C. for standby use.
The lyophilized tail collagen was cut into pieces, 2 mg of tail collagen was precisely weighed, added with 10 μg/ml pepsin (solvent: 0.5 mol/L acetic acid) to reach a final concentration of 5 μg pepsin/mg tail collagen, shanken at 4° C. for 2 h, centrifuged at 40000 g for 60 min, after the volume of supernatant was precisely measured, 500 μl of supernatant and total deposition were separately transferred into 5 ml ampules, added with 6 mol/L HCl, sealed, placed in calorstat oven, and hydrolyzed at 110° C. for 24 h.
Measurement of hydroxyproline concentration in the hydrolysis solution: (1) 100 μl of hydrolysis solution was taken from each of ampules, added with about 50 μl 10 mol/L NaOH to pH 6.0, and citric acid buffer solution (50 g citric acid.H2O, 72.36 g anhydrous sodium acetate, 34 g NaOH, 11.52 ml glacial acetic acid were mixed and added with water to 1200 ml, and added with 300 ml n-propanol) 850 μl. […] (4) 10% P-DMAB (1 g p-dimethylaminobenzaldehyde, added with 3.15 mol/L perchloric acid 2.6 ml to dissolve, then diluted with n-propanol to 10 ml, ready to use) 500 μl was added, mixed quickly at 75° C. water-bath for 10 min. […]

## Cc1csc[n+]1CC(=O)O.[Na+] [A, 3-carboxymethyl-4-methyl-thiazolium bromide sodium]
[1]; 1 μM
  Breaking rate (OD decrease, %): 25.6 ± 2.1%
[1]; 10 μM
  Breaking rate (OD decrease, %): 26.9 ± 3.0%
[1]; 30 μM
  Breaking rate (OD decrease, %): 21.6 ± 5.0%
[1]; 100 μM
  Breaking rate (OD decrease, %): 26.0 ± 2.7%
[2]
  cardiac muscle collagen dissolubility: 54.7±11.0% and 53.7±11.9% and 57.7±7.3%
[3]; 9 mg/kg ig
  Heart rate: 418.3 ± 27.2 Beats/min
  LVEDP: 11.6 ± 2.9^d mmHg
  LVSP: 187.6 ± 22.3 mmHg
  Neg dp/pt: 10729 ± 2035^d mmHg/s
  Pos dp/pt: 10729 ± 2035^d mmHg/s
  BNP: 50.8 ± 5.7 pg/mL
[3]; 36 mg/kg ig
  Heart rate: 406.1 ± 32.9 Beats/min
  LVEDP: 13.0 ± 6.1^d mmHg
  LVSP: 189.2 ± 13.8 mmHg
  Neg dp/pt: 10033 ± 2044^d mmHg/s
  Pos dp/pt: 10033 ± 2044^d mmHg/s
  BNP: 51.3 ± 8.1 pg/mL
other
  melting point: 182 °C
[4]; A 18 mg/kg
  tail collagen dissolubility: 33.7±17.8%
[4]; A 36 mg/kg
  tail collagen dissolubility: 37.5±11.1%
